Among the data in article PMC12040169 (PLOS Biology, 2025) are viability values, retold here.

The nature of one series: in vitro. The following applies: human, hela cells, % viability.
For the molecule `CCCCOC(=O)c1ccc(NC(=O)NCCc2cccs2)cc1` [CBK043381], the viability at 28.5 h, 10 µM was found to be 86%. `CC(C)c1ccc(S(=O)(=O)NCCC2CCN(Cc3ccccc3)CC2)cc1` [CBK043456]: the viability at 28.5 h, 10 µM was determined as 94.5%. The same measure, in the same setting: with `Cc1cc(C)cc(CNC(=O)NCCc2cccs2)c1` [CBK043459] the figure was 103%; with `CCC(C)(C)c1ccc(S(=O)(=O)Nc2ccc3ncsc3c2)cc1` [CBK043490], 113%; with `CCC(O)CNS(=O)(=O)c1ccc(C(C)C)cc1` (stereo not shown) [CBK043543], 91.6%. Still for that read-out and setting: with `CC(C)c1ccc(S(=O)(=O)NCC(C)(C)CO)cc1` [CBK043547] the figure was 110%; with `O=S(=O)(Nc1cccc(C(F)(F)F)c1)c1ccc(OC(F)(F)F)cc1` [CBK043554], 86.3%. The same measure, in the same setting: the result for `N#CCCNS(=O)(=O)c1ccc(OC(F)(F)F)cc1` [CBK043560] reads 97.9%; that for `CC(C)c1ccc(S(=O)(=O)N(CCC#N)Cc2ccccc2)cc1` [CBK043565], 90.7%; that for `CSc1ccc(NS(=O)(=O)c2ccc(NC(C)=O)c(Cl)c2)cc1` [CBK043566], 108%. With `CCCCOC(=O)c1ccccc1NC(=O)NCCc1cccs1` [CBK043573], the viability at 28.5 h, 10 µM turned out to be 93.5%. The same measure, in the same setting: with `CCOc1ccccc1CCNS(=O)(=O)c1ccc(Cl)c(Cl)c1` [CBK043610] the figure was 95.5%. The same measure, in the same setting: the result for `CC(C)c1ccc(S(=O)(=O)NCCC(C)(C)C)cc1` [CBK043640] reads 95.4%. The same measure, in the same setting: with `Cc1cc(S(=O)(=O)Nc2cccc(Br)c2)c(C)cc1Cl` [CBK043652] the figure was 80.8%; with `Cc1cc(S(=O)(=O)NCCC#N)c(C)cc1Cl` [CBK043680], 113%; with `O=S(=O)(Nc1cnc2ccccc2c1)c1cccs1` [CBK043694], 83%. Regarding `O=C1OCc2ccc(NS(=O)(=O)c3ccc(OC(F)(F)F)cc3)cc21` [CBK043715], the viability at 28.5 h, 10 µM was determined as 82.8%. Still for that read-out and setting: the result for `O=C(NCCc1cccs1)Nc1cc(C(F)(F)F)cc(C(F)(F)F)c1` [CBK043718] reads 91.1%; that for `O=C(NCCC1=CCCCC1)Nc1ccc(SC(F)(F)F)cc1` [CBK043725], 85.7%; that for `Cc1ccc(S(=O)(=O)N2CCC3(CC2)OCCO3)cc1Cl` [CBK043731], 97.1%. Same read-out and setting: the result for `CCOC(=O)CN1CCN(S(=O)(=O)c2ccc3ccccc3c2)CC1` [CBK043738] reads 93.4%; that for `CCCCOc1ccc(NC(=O)NCCC2=CCCCC2)cc1` [CBK043751], 92.1%. Still for that read-out and setting: the result for `O=C(NCCc1cccs1)Nc1cc(Cl)nc(Cl)c1` [CBK043762] reads 87.2%; that for `O=S(=O)(Nc1ccccn1)c1cccs1` [CBK043773], 94.7%. On to `CCCCNC(=O)N1CCN(c2ccccc2Cl)CC1` [CBK043777], for which the viability at 28.5 h, 10 µM was 106%. Same read-out and setting: with `CCCCCNC(=O)NCCC1=CCCCC1` [CBK043796] the figure was 96.9%; with `Cc1cc(S(=O)(=O)NCc2cc(F)c(F)c(F)c2)c(C)cc1Cl` [CBK043813], 85%. Still for that read-out and setting: the result for `O=S(=O)(Nc1cccc(O)c1)c1ccc(OC(F)(F)F)cc1` [CBK043822] reads 108%; that for `N#Cc1cccc(Cn2cc(NC(=O)NCCc3cccs3)cn2)c1` [CBK043824], 94.9%. Consider `COC(=O)c1ccc(Cn2cc(NC(=O)NCCc3cccs3)cn2)o1` [CBK043825], for which the viability at 28.5 h, 10 µM came out at 82.4%.

For `CC(C)c1ccc(S(=O)(=O)Nc2cccnc2)cc1` [CBK043884], the viability at 28.5 h, 10 µM turned out to be 97.9%. On the same count and under the same terms, with `COc1ccc(NS(=O)(=O)c2cccs2)c(OC)c1` [CBK043915] the figure was 93%; with `O=C(NCCc1cccs1)Nc1cc(F)ccc1F` [CBK043935], 113%. On the same count and under the same terms, with `O=C(NCCc1cccs1)Nc1ccc(F)c(F)c1` [CBK043951] the figure was 87%; with `CCC(C)(C)c1ccc(S(=O)(=O)N(CCC#N)Cc2cccnc2)cc1` [CBK043960], 89.6%. Consider `Cc1cc(S(=O)(=O)Nc2cc(C3CC3)nn2C)c(C)cc1Cl` [CBK043994], for which the viability at 28.5 h, 10 µM came to 111%. Still for that read-out and setting: the result for `CCOC(=O)C(NS(=O)(=O)c1ccc(NC(C)=O)c(Cl)c1)C(=O)OCC` [CBK043996] reads 96.2%; that for `O=S(=O)(c1cnc(Cl)c(Br)c1)N1CCC2(CC1)OCCO2` [CBK044070], 97.5%; that for `COC(=O)CNC(=O)CNS(=O)(=O)c1ccc(C(C)=O)cc1` [CBK044117], 89.1%.

For `O=S(=O)(NCC1CCCO1)c1cccs1` (stereo not shown) [CBK044263], the viability at 28.5 h, 10 µM stood at 103%.

Consider `CCCCNS(=O)(=O)c1ccc(Cl)c(Cl)c1` [CBK044309], for which the viability at 28.5 h, 10 µM was determined as 96.5%.

As to `COC[C@@H]1CCCN1S(=O)(=O)c1ccc(Cl)c(Cl)c1` [CBK044313], the viability at 28.5 h, 10 µM worked out at 91.3%. Same read-out and setting: with `CC(=O)c1ccc(S(=O)(=O)NCc2ccc(C(F)(F)F)cc2)cc1` [CBK044314] the figure was 108%; with `COC[C@@H]1CCCN1S(=O)(=O)c1ccc(OC(F)(F)F)cc1` [CBK044338], 92.4%; with `O=S(=O)(Nc1cccc(Br)c1)c1ccc(OC(F)(F)F)cc1` [CBK044369], 114%.

For `CC1(C)COC(=O)N1C1CCN(C(=O)c2ccno2)CC1` [CBK044383], the viability at 28.5 h, 10 µM worked out at 95.7%. On the same count and under the same terms, the result for `CCc1cc(Br)ccc1S(=O)(=O)NC1CCOC1=O` (stereo not shown) [CBK044385] reads 97.5%; that for `Cc1noc(C)c1Cn1cc(NS(=O)(=O)c2cccs2)cn1` [CBK044394], 97.9%; that for `CC(C)c1ccc(S(=O)(=O)N2CCN(c3ccc(C#N)cc3)CC2)cc1` [CBK044404], 97.3%.

Take `N#CCCN(CC1CCCO1)S(=O)(=O)c1ccc(OC(F)(F)F)cc1` (stereo not shown) [CBK044405]: the viability at 28.5 h, 10 µM is 91.5%.

On to `CN(CCC#N)S(=O)(=O)c1ccc(OC(F)(F)F)cc1` [CBK044415], for which the viability at 28.5 h, 10 µM is 88.1%. The same measure, in the same setting: the result for `CC(C)c1ccc(S(=O)(=O)NCCc2ccccc2)cc1` [CBK044426] reads 94.1%; that for `CC(=O)c1ccc(S(=O)(=O)NCC2CC2)cc1` [CBK044440], 100%. Still for that read-out and setting: with `O=S(=O)(c1cc(Cl)ccc1Cl)N1CCCN(Cc2ccccc2)CC1` [CBK044491] the figure was 104%; with `CC1(C)COC(=O)N1C1CCN(C(=O)CNC(=O)c2cccs2)CC1` [CBK044501], 93.1%.

As to `O=S(=O)(c1ccc(C(F)(F)F)cc1)N1CCC2(CC1)OCCO2` [CBK044520], the viability at 28.5 h, 10 µM stood at 91.1%. On the same count and under the same terms, the result for `Cc1cccc(C(C)(C)C)c1NC(=O)NCCc1cccs1` [CBK044530] reads 98.9%; that for `COC(=O)[C@H](CC1CCCCC1)NS(=O)(=O)c1ccc(C(C)C)cc1` [CBK044551], 96.3%. The same measure, in the same setting: with `CC(C)c1ccc(S(=O)(=O)Nc2cccc(SC(F)(F)F)c2)cc1` [CBK044581] the figure was 99.5%; with `CC(C)c1ccc(S(=O)(=O)Nc2ccon2)cc1` [CBK044584], 115%.

The series is the same for the next values; noted with them: human, hela cells, % viability, bulk resorufin, single well.
Consider `O=C(Nc1ccccc1Br)N1CCC2(CC1)OCCO2` [CBK043644], for which the viability at 28.5 h, 10 µM was found to be 90.7%.
